The values that follow are results of earlier work, collected in article PMC3979036, “Autocrine IGF-I/insulin receptor axis compensates for inhibition of AKT in ER-positive breast cancer cells with resistance to estrogen deprivation” (Breast Cancer Research : BCR, 2013).

In general, IC50 refers to the midpoint of a concentration-inhibition curve.

The target of this data set is InsR (insulin receptor) (Homo sapiens, UniProt P06213). As to the kind of experiment: autophosphorylation of human InsR in transfected CHO-T cells (AstraZeneca unpublished data). In kind it is cell-based.
Sequence of InsR (insulin receptor) (P06213 28-758): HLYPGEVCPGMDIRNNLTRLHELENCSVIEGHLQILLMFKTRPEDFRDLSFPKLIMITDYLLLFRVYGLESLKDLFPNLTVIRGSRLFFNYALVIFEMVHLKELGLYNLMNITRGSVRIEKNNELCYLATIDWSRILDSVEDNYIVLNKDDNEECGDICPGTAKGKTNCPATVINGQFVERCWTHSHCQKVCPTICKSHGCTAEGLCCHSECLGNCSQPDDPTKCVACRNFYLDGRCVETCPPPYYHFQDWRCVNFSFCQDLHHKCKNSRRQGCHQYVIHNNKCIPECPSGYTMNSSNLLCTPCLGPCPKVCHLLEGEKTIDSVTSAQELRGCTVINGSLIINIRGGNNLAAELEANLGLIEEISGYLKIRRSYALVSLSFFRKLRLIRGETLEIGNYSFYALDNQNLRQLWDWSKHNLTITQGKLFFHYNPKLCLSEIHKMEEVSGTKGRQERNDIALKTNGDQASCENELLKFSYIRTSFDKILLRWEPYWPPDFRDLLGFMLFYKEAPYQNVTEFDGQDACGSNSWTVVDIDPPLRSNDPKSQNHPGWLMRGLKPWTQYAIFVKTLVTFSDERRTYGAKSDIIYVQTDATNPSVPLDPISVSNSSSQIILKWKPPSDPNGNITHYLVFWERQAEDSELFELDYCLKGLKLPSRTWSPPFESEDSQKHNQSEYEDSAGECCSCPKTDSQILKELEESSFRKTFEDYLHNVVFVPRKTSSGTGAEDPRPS
Sequence of InsR (insulin receptor) (P06213 763-1382): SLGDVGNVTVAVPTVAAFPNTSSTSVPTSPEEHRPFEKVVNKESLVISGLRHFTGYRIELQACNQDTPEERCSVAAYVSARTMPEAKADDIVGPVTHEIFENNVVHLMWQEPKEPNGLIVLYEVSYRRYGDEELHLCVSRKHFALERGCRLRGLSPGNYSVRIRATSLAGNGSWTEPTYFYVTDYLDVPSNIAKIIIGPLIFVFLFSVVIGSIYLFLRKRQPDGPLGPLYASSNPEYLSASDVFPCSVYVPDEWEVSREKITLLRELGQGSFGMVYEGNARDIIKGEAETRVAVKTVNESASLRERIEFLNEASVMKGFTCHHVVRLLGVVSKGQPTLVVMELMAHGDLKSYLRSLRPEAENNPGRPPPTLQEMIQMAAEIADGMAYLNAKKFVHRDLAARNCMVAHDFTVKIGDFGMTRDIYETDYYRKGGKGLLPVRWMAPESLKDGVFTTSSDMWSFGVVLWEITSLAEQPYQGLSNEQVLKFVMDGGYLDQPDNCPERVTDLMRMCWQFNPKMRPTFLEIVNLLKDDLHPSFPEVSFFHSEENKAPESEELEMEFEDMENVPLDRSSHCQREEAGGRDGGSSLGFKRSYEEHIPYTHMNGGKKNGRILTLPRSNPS

`Cc1nn(C2CCN(C(=O)[C@@H](C)O)CC2)c(C)c1Nc1ncc(Cl)c(-c2cnn3ccccc23)n1` [AZD9362]: the IC50 was 186 nM.
